Values of other authors as cited in US12296036B2, “Method for dyeing keratinous material, including the application of an organosilicon compound, a dyeing compound, a sealing reagent and an alkaline pre-treatment agent” (HENKEL AG & CO. KGAA, priority 2021, dated 2025).

Row | Compound | solubility in water (25° C.) | further results
1 | O=C([O-])C1=NN(c2ccc(S(=O)(=O)[O-])cc2)C(=O)C1N=Nc1ccc(S(=O)(=O)[O-])cc1.[Na+].[Na+].[Na+] (centres unmarked) [Acid Yellow 23, trisodium salt of 4,5-dihydro-5-oxo-1-(4-sulfophenyl)-4-((4-sulfophenyl)azo)-1H-pyrazole-3-carboxylic acid] |  | solubility in water (in words) (in water at 25° C.): readily soluble
2 | O=C([O-])c1c(Cl)c(Cl)c(Cl)c(Cl)c1-c1c2cc(Br)c(=O)c(Br)c-2oc2c(Br)c([O-])c(Br)cc12.[Na+].[Na+] [Acid Red 92, disodium salt of 3,4,5,6-tetrachloro-2-(1,4,5,8-tetrabromo-6-hydroxy-3-oxanthene-9-yl) benzoic acid] | greater than 10 g/L | 
3 | CCN(Cc1cccc(S(=O)(=O)[O-])c1)c1ccc(C(=C2C=CC(=[N+](CC)Cc3cccc(S(=O)(=O)[O-])c3)C=C2)c2ccccc2S(=O)(=O)[O-])cc1.[Na+].[Na+] [Acid Blue 9] |  | water solubility (25° C.): more than 20 wt. %
4 | Nc1cc(S(=O)(=O)[O-])cc2cc(S(=O)(=O)[O-])c(N=Nc3ccccc3)c(O)c12.[Na+].[Na+] [Acid Red 33, disodium salt of 5-amino-4-hydroxy-3-(phenylazo)-naphthalene-2,7-disulfonate] | 2500 µg/mL | 
5 | O=S(=O)([O-])c1ccc(N=Nc2c(O)ccc3ccccc23)cc1.[Na+] [Acid Orange 7, sodium salt of 4-[(2-hydroxy-1-naphthyl)azo]benzene sulphonate] | more than 7 g/L | 
